Literature values in patent publication US12018199B2, “Fire retardant and fire blocking composition for use in forest fires, and method of making same” (priority 2020, dated 2024).
Where two headings read alike, the source gives them in different places.

Conditions: in water

Q: For `NC(N)=O` [Urea, urea], which Solubility (0 °C) is on record?
A: 66.7 g/100 g of water

Q: What about the Solubility (20 °C) of the same compound?
A: 108 g/100 g of water

Q: What about the Solubility (40 °C) of the same compound?
A: 167 g/100 g of water

Q: What about the Solubility (60 °C) of the same compound?
A: 251 g/100 g of water

Q: What about the Solubility (80 °C) of the same compound?
A: 400 g/100 g of water

Q: What about the Solubility (100 °C) of the same compound?
A: 733 g/100 g of water
